From ChEMBL document CHEMBL1137042, “Synthesis and cytotoxic activity of novel derivatives of 4'-demethylepipodophyllotoxin” (Bioorg Med Chem Lett, 2004)

Key:
[1] = test system: HL-60; assay: In vitro inhibitory concentration required against human leukemic HL-60 cell line was determined after 48 hrs of drug exposure using MTT method; type: functional, cell-based; conditions: HL-60, 48 h
[2] = test system: A549; assay: In vitro inhibitory concentration required against human lung carcinoma A-549 cell line was determined after 72 hrs of drug exposure using SRB method; type: functional, cell-based; conditions: A549, 72 h

Row | SMILES | IC50 [1] [nM] | IC50 [2] [nM]
1 | COc1cc([C@@H]2c3cc4c(cc3[C@@H](NC(CSC)C(=O)OCCCCCn3cc(F)c(=O)[nH]c3=O)[C@H]3COC(=O)[C@H]23)OCO4)cc(OC)c1O (stereo not given in full) | 40 | 230
2 | COc1cc([C@@H]2c3cc4c(cc3[C@@H](NC(C(=O)OCCCCCn3cc(F)c(=O)[nH]c3=O)C(C)Cc3ccccc3)[C@H]3COC(=O)[C@H]23)OCO4)cc(OC)c1O (stereo not given in full) | 300 | 530
3 | COc1cc([C@@H]2c3cc4c(cc3[C@@H](NC(Cc3ccccc3)C(=O)OCCCCn3cc(F)c(=O)[nH]c3=O)[C@H]3COC(=O)[C@H]23)OCO4)cc(OC)c1O (stereo not given in full) | 420 | 300
4 | COc1cc([C@@H]2c3cc4c(cc3[C@@H](NC(CSC)C(=O)OCCCn3cc(F)c(=O)[nH]c3=O)[C@H]3COC(=O)[C@H]23)OCO4)cc(OC)c1O (stereo not given in full) | 990 | 290
5 | COc1cc([C@@H]2c3cc4c(cc3[C@@H](NC(CSC)C(=O)OCCCCn3cc(F)c(=O)[nH]c3=O)[C@H]3COC(=O)[C@H]23)OCO4)cc(OC)c1O (stereo not given in full) | 50 | 1870
6 | COc1cc([C@@H]2c3cc4c(cc3[C@@H](NC(Cc3ccccc3)C(=O)OCCCCCn3cc(F)c(=O)[nH]c3=O)[C@H]3COC(=O)[C@H]23)OCO4)cc(OC)c1O (stereo not given in full) | 40 | < 10
7 | COc1cc([C@@H]2c3cc4c(cc3[C@@H](NC(C(=O)OCCCCn3cc(F)c(=O)[nH]c3=O)C(C)Cc3ccccc3)[C@H]3COC(=O)[C@H]23)OCO4)cc(OC)c1O (stereo not given in full) | 530 | 740
8 | COc1cc([C@@H]2c3cc4c(cc3[C@@H](NC(Cc3ccccc3)C(=O)OCCCn3cc(F)c(=O)[nH]c3=O)[C@H]3COC(=O)[C@H]23)OCO4)cc(OC)c1O (stereo not given in full) | 310 | 480
9 | COc1cc([C@@H]2c3cc4c(cc3[C@@H](NC(C(=O)OCCCn3cc(F)c(=O)[nH]c3=O)C(C)Cc3ccccc3)[C@H]3COC(=O)[C@H]23)OCO4)cc(OC)c1O (stereo not given in full) | 240 | 180
10 | O=c1[nH]cc(F)c(=O)[nH]1 [FLUOROURACIL] | 65300 | 50500
